# Reference: ChEMBL document CHEMBL1201862, “PubChem BioAssay data set” (2004)
#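 Cultured in 96-well plates, cells were exposed to test compound for 48 hours across five concentrations. At the GI50, growth is halved.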 Calls of active or inactive are those of the source. Cut-off read from the data, not from the text of the source: active = GI50 up to about 1.1 µM and inactive = higher.
# Assays:
# Assay in all cases: DTP human tumour cell line panel, 48 h
# [1] = test system: A498
# [2] = test system: DU-145
# [3] = test system: HCT-116
# [4] = test system: HOP-62
# [5] = test system: MDA-N
# [6] = test system: NCI-H522
# [7] = test system: OVCAR-4
# [8] = test system: OVCAR-5
# [9] = test system: RPMI-8226
# [10] = test system: RXF 393
# [11] = test system: SF-539
# [12] = test system: SK-MEL-5
# [13] = test system: SN12C
# [14] = test system: T47D
# [15] = test system: U-251
# [16] = test system: Hs-578T
# [17] = test system: KM12
# [18] = test system: SF-268
# [19] = test system: TK-10
# [20] = test system: HOP-92
SMILES,GI50 [1],GI50 [2],GI50 [3],GI50 [4],GI50 [5],GI50 [6],GI50 [7],GI50 [8],GI50 [9],GI50 [10],GI50 [11],GI50 [12],GI50 [13],GI50 [14],GI50 [15],GI50 [16],GI50 [17],GI50 [18],GI50 [19],GI50 [20]
CCOC(=O)C(=CN1CCNC1=S)C(=O)OCC,18.2 µM (inactive),> 100 µM (inactive),> 100 µM (inactive),> 100 µM (inactive),> 100 µM (inactive),62.7 µM (inactive),> 100 µM (inactive),> 100 µM (inactive),> 100 µM (inactive),> 100 µM (inactive),> 100 µM (inactive),> 100 µM (inactive),> 100 µM (inactive),> 100 µM (inactive),> 100 µM (inactive),–,–,–,–,–
O=c1[nH]c2[nH]c(-c3ccc(Br)cc3)cc2c2ccccc12,> 100 µM (inactive),> 100 µM (inactive),43.2 µM (inactive),22.1 µM (inactive),> 100 µM (inactive),> 100 µM (inactive),24.7 µM (inactive),> 100 µM (inactive),70.5 µM (inactive),24.7 µM (inactive),> 100 µM (inactive),> 100 µM (inactive),41.4 µM (inactive),–,28.8 µM (inactive),15.1 µM (inactive),> 100 µM (inactive),86.9 µM (inactive),52 µM (inactive),–
CC1(C)CC(=O)C(=CNc2nc(-c3ccc(Br)cc3)cs2)C(=O)C1,–,43.9 µM (inactive),26.5 µM (inactive),31.3 µM (inactive),37.8 µM (inactive),–,37.5 µM (inactive),42.5 µM (inactive),–,–,24.8 µM (inactive),32.6 µM (inactive),39.7 µM (inactive),32.9 µM (inactive),30.6 µM (inactive),–,34 µM (inactive),–,11.5 µM (inactive),33 µM (inactive)
CN(CCN1C(=O)c2cc([N+](=O)[O-])cc3cc([N+](=O)[O-])cc(c23)C1=O)CCN1C(=O)c2cc([N+](=O)[O-])cc3cc([N+](=O)[O-])cc(c23)C1=O,12.8 µM (inactive),–,0.153 µM (active),2.65 µM (inactive),–,0.421 µM (active),0.524 µM (active),1.69 µM (inactive),0.342 µM (active),0.238 µM (active),0.399 µM (active),1.21 µM (inactive),0.332 µM (active),–,0.375 µM (active),–,0.681 µM (active),0.458 µM (active),8.73 µM (inactive),0.252 µM (active)
O=C1/C(=C/c2cccc(F)c2)CCCc2ccccc21,–,16.9 µM (inactive),15.6 µM (inactive),14.3 µM (inactive),–,12.9 µM (inactive),16.7 µM (inactive),15.1 µM (inactive),14.9 µM (inactive),–,17.4 µM (inactive),–,17.9 µM (inactive),–,16.2 µM (inactive),13.2 µM (inactive),12.1 µM (inactive),12.9 µM (inactive),15.7 µM (inactive),15.8 µM (inactive)
CC[C@]1(O)C(=O)OCc2c1cc1n(c2=O)Cc2cc3c(N)cccc3nc2-1,> 100 µM (inactive),–,> 100 µM (inactive),> 100 µM (inactive),–,> 100 µM (inactive),> 100 µM (inactive),> 100 µM (inactive),> 100 µM (inactive),> 100 µM (inactive),> 100 µM (inactive),> 100 µM (inactive),> 100 µM (inactive),–,> 100 µM (inactive),–,> 100 µM (inactive),> 100 µM (inactive),> 100 µM (inactive),> 100 µM (inactive)
CC1N(O)C(c2ccccc2)C(c2ccccc2)=[N+]1[O-] (stereo not drawn),> 100 µM (inactive),–,> 100 µM (inactive),> 100 µM (inactive),> 100 µM (inactive),–,> 100 µM (inactive),> 100 µM (inactive),–,> 100 µM (inactive),> 100 µM (inactive),> 100 µM (inactive),> 100 µM (inactive),–,> 100 µM (inactive),> 100 µM (inactive),> 100 µM (inactive),–,> 100 µM (inactive),> 100 µM (inactive)
Cc1ccc(S(=O)(=O)c2ccc(C)cc2[N+](=O)[O-])cc1,19.4 µM (inactive),–,71.4 µM (inactive),> 100 µM (inactive),–,43.7 µM (inactive),> 100 µM (inactive),> 100 µM (inactive),> 100 µM (inactive),82 µM (inactive),> 100 µM (inactive),24.4 µM (inactive),> 100 µM (inactive),–,> 100 µM (inactive),–,> 100 µM (inactive),> 100 µM (inactive),> 100 µM (inactive),> 100 µM (inactive)
CC1=C2CN(C(=O)OCC(C)C)CCC2C2=C(C(=O)c3ccccc3C2=O)C1C (stereo not drawn),–,> 10 µM (inactive),–,> 10 µM (inactive),> 10 µM (inactive),–,> 10 µM (inactive),–,> 10 µM (inactive),> 10 µM (inactive),–,> 10 µM (inactive),> 10 µM (inactive),> 10 µM (inactive),–,–,> 10 µM (inactive),> 10 µM (inactive),> 10 µM (inactive),> 10 µM (inactive)
O=C(/C=C/c1ccc(Cl)c(Cl)c1)c1ccc2ccccc2c1,> 100 µM (inactive),–,> 100 µM (inactive),> 100 µM (inactive),–,88.5 µM (inactive),> 100 µM (inactive),> 100 µM (inactive),> 100 µM (inactive),> 100 µM (inactive),> 100 µM (inactive),> 100 µM (inactive),19.7 µM (inactive),–,> 100 µM (inactive),–,> 100 µM (inactive),> 100 µM (inactive),> 100 µM (inactive),> 100 µM (inactive)
N#CC(C/C=C/c1ccccc1)NNC(=O)c1c(Cl)c(Cl)c(Cl)c(Cl)c1-c1nc2cc(C(=O)c3ccccc3)ccc2[nH]1 (stereo not drawn),9.23 µM (inactive),18.5 µM (inactive),20 µM (inactive),6.14 µM (inactive),3.24 µM (inactive),–,14 µM (inactive),28.9 µM (inactive),16.3 µM (inactive),9.53 µM (inactive),9.86 µM (inactive),10.2 µM (inactive),14.8 µM (inactive),12 µM (inactive),12.5 µM (inactive),–,23.4 µM (inactive),–,22.8 µM (inactive),16.2 µM (inactive)
Cc1nc2c(Br)cc(Br)cc2c(=O)n1-c1ccccc1N,36.9 µM (inactive),56.6 µM (inactive),23.4 µM (inactive),70.5 µM (inactive),50.9 µM (inactive),–,> 100 µM (inactive),28.8 µM (inactive),–,–,35.2 µM (inactive),18.3 µM (inactive),29.9 µM (inactive),–,–,25.9 µM (inactive),51.5 µM (inactive),50.1 µM (inactive),–,–
CC(C)[C@H]1C(=O)O[B@-](F)(c2ccccc2)/[N+]1=C\N(C)C,–,> 100 µM (inactive),> 100 µM (inactive),> 100 µM (inactive),> 100 µM (inactive),–,30.1 µM (inactive),> 100 µM (inactive),> 100 µM (inactive),–,–,> 100 µM (inactive),> 100 µM (inactive),> 100 µM (inactive),> 100 µM (inactive),–,–,> 100 µM (inactive),> 100 µM (inactive),> 100 µM (inactive)
COc1c(-c2ccccc2)oc2c(CP(=O)(OC)OC)cccc2c1=O,> 100 µM (inactive),> 100 µM (inactive),> 100 µM (inactive),> 100 µM (inactive),> 100 µM (inactive),> 100 µM (inactive),–,> 100 µM (inactive),14.6 µM (inactive),> 100 µM (inactive),> 100 µM (inactive),> 100 µM (inactive),> 100 µM (inactive),> 100 µM (inactive),> 100 µM (inactive),–,–,–,> 100 µM (inactive),–
CC1CC(N)=Nc2ccccc2N1Cc1ccccc1 (stereo not drawn),11.2 µM (inactive),16.6 µM (inactive),29.3 µM (inactive),13 µM (inactive),18 µM (inactive),12.7 µM (inactive),16.5 µM (inactive),31.8 µM (inactive),5 µM (inactive),12 µM (inactive),–,14.7 µM (inactive),16.6 µM (inactive),–,15.2 µM (inactive),11.1 µM (inactive),15 µM (inactive),13.6 µM (inactive),15 µM (inactive),–
O=c1oc2ccccc2[n+]([O-])c1-c1ccccc1,> 100 µM (inactive),–,> 100 µM (inactive),> 100 µM (inactive),–,36.6 µM (inactive),> 100 µM (inactive),> 100 µM (inactive),> 100 µM (inactive),> 100 µM (inactive),> 100 µM (inactive),> 100 µM (inactive),> 100 µM (inactive),–,> 100 µM (inactive),–,> 100 µM (inactive),> 100 µM (inactive),> 100 µM (inactive),> 100 µM (inactive)
O=C=NCCCCCCN1C(=O)N2C(c3ccccc3)N(CCCCCCN=C=O)C(=O)N2C1c1ccccc1 (stereo not drawn),> 100 µM (inactive),> 100 µM (inactive),> 100 µM (inactive),> 100 µM (inactive),> 100 µM (inactive),–,> 100 µM (inactive),> 100 µM (inactive),55 µM (inactive),> 100 µM (inactive),> 100 µM (inactive),> 100 µM (inactive),> 100 µM (inactive),–,> 100 µM (inactive),–,> 100 µM (inactive),> 100 µM (inactive),> 100 µM (inactive),> 100 µM (inactive)
